Experiments:
[1] = Cytotoxicity against human DLD1 cells overexpressing PRL3 assessed as cell viability at 10 ug/ml after 24 hrs by WST-1 assay relative to control; assay type: cell-based; conditions: DLD-1 cells overexpressing PRL3, read-out: Activity
DLD-1 = assay: Antimigratory activity against human DLD1 cells overexpressing PRL3 at 10 ug/ml after 20 hrs by crystal violet staining-based light microscopic analysis relative to control; assay type: functional; conditions: DLD-1, 20 h
[2] = target: Protein tyrosine phosphatase type IVA 3 (Homo sapiens, UniProt O75365); assay: Inhibition of human His6-tagged full length PRL3 assessed as inhibition of DiFMUP dephosphorylation at 5 ug/ml relative to control
Chain of Protein tyrosine phosphatase type IVA 3 (O75365 whole entry): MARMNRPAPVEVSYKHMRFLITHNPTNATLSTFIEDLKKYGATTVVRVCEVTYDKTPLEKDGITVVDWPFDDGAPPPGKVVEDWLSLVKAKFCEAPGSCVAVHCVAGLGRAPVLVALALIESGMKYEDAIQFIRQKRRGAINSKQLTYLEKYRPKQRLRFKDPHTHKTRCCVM

Row | Structure (SMILES) | inhibition [2] [%] | viability at 24 h, 10 ug/ml [1] [%] | inhibition at 10 µg/mL (DLD-1) [%]
1 | O=C1NC(=S)S/C1=C\C=C\c1ccccc1OS(=O)(=O)c1ccccc1 | 64.2 | 83.1 | 80
2 | COc1ccccc1/C=C/C=C1\SC(=S)NC1=O | 41.7 | 98.8 | 69
3 | O=C1NC(=S)S/C1=C\C=C\c1cccnc1 | 47.1 | 105 | 45
4 | O=C1NC(=S)S/C1=C\C=C\c1ccccc1O | 51.9 | 96.3 | 65
5 | O=C1NC(=S)S/C1=C\C=C\c1ccccc1OC(=O)c1ccccc1 | 30.6 | 99.2 | 40
6 | O=C1NC(=S)S/C1=C\C=C\c1cc(Br)ccc1OCc1ccccc1Br | 40.3 | 72.3 | 71
7 | O=C1NC(=S)S/C1=C\C=C\c1ccccc1NC(=O)c1ccccc1 | 35.2 | 97.1 | 68
8 | COc1cccc(COc2ccccc2/C=C/C=C2\SC(=S)NC2=O)c1 | 52.9 | 87.1 | 82
9 | O=C1NC(=S)S/C1=C\C=C\c1ccccc1Cl | 53.9 | 81.9 | 80
10 | O=C1NC(=S)S/C1=C\C=C\c1ccccc1 | 37.4 | 96.6 | 81
11 | O=C1NC(=S)S/C1=C\C=C\c1ccccc1OCc1ccncc1 | 39.4 | 96.5 | 62

More lines, main results first:

Row | inhibition [2] [%] | Structure (SMILES) | viability at 24 h, 10 ug/ml [1] [%] | inhibition at 10 µg/mL (DLD-1) [%]
12 | 63.1 | O=C1NC(=S)S/C1=C\C=C\c1ccccc1OCc1ccccc1Br | 78.8 | 78
13 | 22.5 | O=C1NC(=O)/C(=C/C=C/c2ccccc2OCc2ccccc2Br)S1 | 37.7 | 50
14 | 40.8 | O=C1NC(=S)S/C1=C\C=C\c1ccccc1OCc1ccccc1C(F)(F)F | 41.5 | 80
15 | 52.8 | Cc1ccccc1COc1ccccc1/C=C/C=C1\SC(=S)NC1=O | 75.5 | 73
16 | 49.5 | O=C1NC(=S)S/C1=C\C=C\c1ccccc1OCc1ccccc1 | 87.9 | 65
